What was measured:
[1] = Stability of calcifediol in acidic dissolution media (Example 4); format: physicochemical; conditions: pH 1.2 medium, 37° C., after 6 hours
Method: The stability of calcifediol was tested in acidic dissolution media at ambient/light conditions and also in dark conditions, at 37° C., 20° C., and 10° C., using 30 μg calcifediol extended release capsules.

[2] = Repeated-dose study in SHPT, stage 3 or 4 CKD, vitamin D insufficiency: serum total 25-hydroxyvitamin D; format: in vivo, human; conditions: target of 30 ng/mL; end of second month of treatment (EAP2)
Method: (§1) A study is carried out with repeated-dosing of ERC (Rayaldee® (calcifediol) extended-release capsules), IR calcifediol (“IRC”), high-dose cholecalciferol (“HDC”), and paricalcitol plus low-dose cholecalciferol (“PLDC”) in adult patients with secondary hyperparathyroidism (SHPT), stage 3 or 4 chronic kidney disease (CKD) and vitamin D insufficiency.
(§2) This is an open-label study to gather comparative data evaluating the ERC, IR calcifediol, high-dose cholecalciferol, and paricalcitol plus low-dose cholecalciferol. Eligible subjects were randomized 1:1:1:1 to receive 8 weeks of treatment with one of the listed study medications with a sufficient quantity of a non-alcoholic beverage to enable swallowing of the capsules: • 1) ERC capsules 60 μg once daily at bedtime, except on Days 1 and 29 when dosing occurred in the morning before breakfast in the phase 1 unit; • 2) IR calcifediol 266 μg before breakfast on the mornings of Day 1 and Day 29 in the phase 1 unit; • 3) cholecalciferol 300,000 IU (high-dose) before breakfast on the mornings of Day 1 and Day 29 in the phase 1 unit; and • 4) paricalcitol 1 μg (possibly increasing to 2 μg per day at Day 29) plus cholecalciferol 800 IU (low-dose) once daily in the morning before breakfast, except on the mornings of Days 1 and 29 when dosing occurred before breakfast in the phase 1 unit. […]

[3] = tested on: Plasma iPTH; experiment: Repeated-dose study (Example 3): plasma iPTH-lowering response; format: in vivo, human; conditions: EAP2
Method: as §1, §2

Structure (SMILES) | degradation [1] | serum total 25-hydroxyvitamin D response rate [2] | plasma iPTH response rate ([3]; response = ≥20% reduction from pre-treatment baseline) | plasma iPTH response rate ([3]; response = ≥30% reduction from pre-treatment baseline)
C=C1CC[C@H](O)C/C1=C/C=C1\CCC[C@]2(C)[C@@H]([C@H](C)CCCC(C)(C)O)CC[C@@H]12 [calcifediol] | about 90% | – | – | –
C=C1CC[C@H](O)C/C1=C/C=C1\CCC[C@]2(C)[C@@H]([C@H](C)CCCC(C)C)CC[C@@H]12 [HDC, cholecalciferol] | – | 44% | 37.5% | 25.0%

— patent publication US20230330110A1, “HARD CAPSULE DOSAGE FORM AND USES THEREOF” (EIRGEN PHARMA LTD., priority 2020, published 2023)
